According to US20160205982A1, “LIFE ENHANCING BEVERAGES” (REOXCYN DISCOVERIES GROUP, INC., priority 2013, published 2016):

Key:
NRF2 = assay: Western blot of NRF2 in nuclear extracts of HMVEC-L; assay type: cell-based, human; settings: H2O2 30 min, positive control
Protocol: (§1) 8. A Western Blot analysis was done on extra-nuclear and intra-nuclear fractions, separated by differential centrifugation, of serum starved HMVEC-L cell cultures exposed to <1% ASEA compared with a positive hydrogen peroxide control to determine phosphorylation events (oxidant action) in the extra-nuclear fraction and NRF2 (antioxidant transcription) in the intra-nuclear fraction at 0, 30, 60, 90 and 120 min. intervals.
(§2) Experimental Methods for Western Blot Validation of NRF2 Nuclear Accumulation: HMVEC-L were treated with 1% ASEA, nuclear extracts were separated through centrifugal differentiation from the extra-nuclear cytosol at 30, 60 and 120 min and subjected to Western Blot analysis for NRF2. In the Western blot experiment the extra-nuclear fraction was probed for phosphorylated proteins using a combination of anti-phospho serine, threonine and tyrosine antibodies. Virtually all cellular processes are regulated by posttranslational modifications and protein phosphorylation is a prevalent mechanism. Observable changes in protein phosphorylation can lead to a mechanistic understanding of the cellular processes perturbed by ASEA and provide a defined endpoint to better define dose-dependent regulation of cell function by ASEA in vitro, as well as provide a potential candidate molecular marker that may be used to provide in vitro-in vivo correlates. […]

[1] = test system: phosphorylated proteins (extra-nuclear fraction); assay: Western blot of protein phosphorylation in extra-nuclear fraction of HMVEC-L; assay type: cell-based, human; settings: H2O2 treatment
Protocol: as §1, §2

OO [H2O2, Hydrogen peroxide]
NRF2 levels in nuclear extracts (NRF2): did not increase | phosphorylation of the protein detected in extra-nuclear fraction [1]: marked increase
